For one assay, the target named is T1, serotonin-2 receptor (Rattus norvegicus, UniProt P14842).
T1 construct: Male Wistar rats (120-180 g) are fasted for 18 hr prior to testing; from tissue; host or cells: whole living animal (male Wistar rat), endogenous receptor of the central nervous system
Kind of assay: head twitch test, inhibition of the head twitch induced by 5-hydroxytryptophane in the rat. The assay is classed as in vivo, Male Wistar rats. As to the method:
The serotonin-2 antagonism or blockade is determined in vivo by measuring the inhibition of the head twitch induced by 5-hydroxytryptophane (the metabolic precursor of serotonin) in the rat. The head twitch test for assessing central nervous system serotonin-2 receptor antagonism in the rat is described in Neuropharmacology 16, 663 (1977) and in J. Pharmacol. Exp. Ther. 228, 133 (1984). The test is carried out as follows:
Male Wistar rats (120-180 g) are fasted for 18 hr prior to testing but allowed water ad libitum. All animals are pretreated with the peripheral decarboxylase inbihitor alpha-methyl-DOPA hydrazine (carbidopa 25 mg/kg i.p., 4.0 ml/kg) followed 30 min later by 5-hydroxytryptophan (5HTP 100 mg/kg s.c., 4.0 ml/kg). Ninety minutes after receiving 5HTP, the rats are placed individually in plexiglas observation cages and the frequency of head twitches for each animal is counted over a 10 min observation period. The test compound or vehicle is administered at either 0.5 hr at 1.0 ml/kg i.p. or at 1, 2 or 4 hr at 10 ml/kg p.o. prior to the observation period. ED50 values are determined by probit analysis.

Assay [1] addresses T2, serotonin-2 (HT-2) receptor (Rattus norvegicus, UniProt P14842).
T2 construct: membrane preparations of frontal/parietal cortex from male Sprague-Dawley rats; from tissue; host or cells: rat frontal/parietal cortex membranes (male Sprague-Dawley)
Kind of assay: serotonin-2 (HT-2) receptor binding, inhibition of specific binding of ^3 H-ketanserin in frontal/parietal cortex membranes. Further details: species or system male Sprague-Dawley rats. The note with it: specific binding of ^3 H-ketanserin (0.4 nM). As to the method: The serotonin-2 (HT-2) receptor binding properties, indicative of the serotonin-2 antagonist activity of the compounds of the invention, are determined in vitro by determining their ability to inhibit the specific binding of ^3 H-ketanserin, essentially as described by Battaglia et al in Life Sciences 33, 2011 (1983), in membrane preparations of frontal/parietal cortex from male Sprague-Dawley rats (200-225 g). IC50 values, representing the concentration of compound required to displace 50% of specific binding of 0.4 nM of ^3 H-ketanserin, are determined by log-logit analysis of the specific binding data. Selectivity for the HT-2 receptors can be determined by also measuring specific binding to serotonin-1 (HT-1) receptors, e.g. according to Middlemiss, D. N. and Fozard, J. R. in Eur. J. Pharmacol. 90, 151 (1980).

pIC50: −log10 of the molar value.

T1 sequence (P14842 whole entry): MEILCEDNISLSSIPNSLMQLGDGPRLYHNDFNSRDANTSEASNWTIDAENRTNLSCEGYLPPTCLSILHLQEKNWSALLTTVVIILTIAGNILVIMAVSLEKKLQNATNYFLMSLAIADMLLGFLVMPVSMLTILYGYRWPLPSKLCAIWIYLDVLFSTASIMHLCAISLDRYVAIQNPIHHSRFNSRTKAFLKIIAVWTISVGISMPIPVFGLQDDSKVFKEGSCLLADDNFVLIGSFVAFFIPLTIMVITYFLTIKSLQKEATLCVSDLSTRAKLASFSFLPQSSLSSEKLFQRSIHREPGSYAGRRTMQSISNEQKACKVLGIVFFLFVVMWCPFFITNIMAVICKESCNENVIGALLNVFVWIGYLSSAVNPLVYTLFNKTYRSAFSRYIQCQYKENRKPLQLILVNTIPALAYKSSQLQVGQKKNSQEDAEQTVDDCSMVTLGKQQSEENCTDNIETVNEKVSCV
T2 sequence (P14842 whole entry): as above

Usually ED50 stands for the dose that gives a 50% effect, or the effect in half of the subjects. A low value points to greater potency. The pIC50 is the IC50 on a negative log10 scale, so that one unit is a factor of ten. A high value points to a small IC50. Consider `CCSC[C@H]1CN(C)C[C@H]2c3cc(OC)cc(Br)c3OC[C@H]12` (relative stereo) [Example 4, (±)-[4R*,4aS*,10bR*]-7-Bromo-4-(ethylthiomethyl)-1,3,4,4a,5,10b-hexahydro-9-methoxy-2-methyl-2H-[1]benzopyrano[4,3-c]pyridine], for which the ED50 at serotonin-2 receptor (0.5 h, ip (at 30 minutes)) amounted to 1.1 mg/kg; on serotonin-2 receptor (po (at 1 hour)), 0.71 mg/kg. The same molecule had a pIC50 in assay [1] of 7.66.

Source of the values: patent US4666916A, “Hexahydro-(1)-benzo-(pyrano and thiopyrano) (4,3-C)pyridines, useful as serotin-2 blocking agents” (Ciba-Geigy Corporation, priority 1985, dated 1987).
